The results in this text go back to PubChem BioAssay AID566 (University of Pittsburgh Molecular Library Screening Center, 2006).

Calls of active or inactive are those of the source. No rule for the calls is given here.

In the assay the target is Dual specificity protein phosphatase 6 (Rattus norvegicus) (UniProt Q64346). As to the kind of experiment: MKP-3 phosphatase inhibitors, repeat potency, dose response, biochemical, rat DUSP6, reproducibility testing, probe assessment (AID 566). The settings on record: recombinant MKP-3 phosphatase, fluorescence substrate.

The IC50 is the midpoint of a concentration-inhibition curve.

Sequence of Dual specificity protein phosphatase 6 (Rattus norvegicus) (Q64346 whole entry, looked up): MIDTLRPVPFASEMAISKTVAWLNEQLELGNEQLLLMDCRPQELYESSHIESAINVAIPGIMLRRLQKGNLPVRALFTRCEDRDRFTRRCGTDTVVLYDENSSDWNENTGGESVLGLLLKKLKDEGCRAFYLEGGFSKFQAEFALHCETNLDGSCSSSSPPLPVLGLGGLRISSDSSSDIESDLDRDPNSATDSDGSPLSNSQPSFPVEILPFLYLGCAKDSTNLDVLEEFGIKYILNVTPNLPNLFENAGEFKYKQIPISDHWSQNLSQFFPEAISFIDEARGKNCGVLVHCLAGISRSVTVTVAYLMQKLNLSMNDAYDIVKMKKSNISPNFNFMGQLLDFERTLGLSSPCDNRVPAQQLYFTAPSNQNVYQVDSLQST

Consider `O=C1C(C2=C(O)c3ccccc3C2=O)=Nc2ccccc21`, for which the IC50 was > 50 µM (inactive).
